Measured values: patent US20190284192A1, “NITROGENOUS MACROCYCLIC COMPOUND, PREPARATION METHOD THEREFOR, PHARMACEUTICAL COMPOSITION AND APPLICATION THEREOF” (LUOXIN PHARMACEUTICAL (SHANGHAI) CO., LTD., priority 2016, published 2019)
Where two headings read alike, the source gives them in different places.

Tests used:
[1] = tested on: SU-DHL-6 cells; assay: Inhibitory effect on SU-DHL-6 cells (CellTiter-Glo); assay type: cell-based; details: Homo sapiens, read-out: SU-DHL-6
Method: Determinations of the inhibition of the compounds from the above embodiments against SU-DHL-6 cells, the detailed operation steps are as followed:
The 1st Day: Seed the Cells on the Plate
1. The cells were verified that they were in good conditions by observation under microscope;
2. The cells were transferred to a centrifuge tubes, after centrifuged at 1000 rpm for 5 min, the supernatant was discarded;
3. The complete substrate (1640+10% FBS) was added, then blown and patted into single cell suspension, counted by Vi-cell cytometer, the cell suspension was adjusted to desired cell density by the complete medium.
4. The cells were inoculated into a 96 well plate, the cell number was 12000/well at 100 μL per well, 100 μL complete medium was added into the black control;
5. 37° C., 5% CO2 culture overnight.
The 2nd Day: Addition of the Drugs
1. 1000× Compound Plate Preparation
1.1. The test compound was prepared into 10 mM working solution by using DMSO. Then the STS was prepared into 2 mM working solution by using DMSO.
1.2. In the round bottom 96 wells plate, the column 2 of row A to H was added into 60 μL 10 mM test compound (or STS) working solution, columns 3-11 were added into 40 μL DMSO, 20 μL drug solution was pipetted from the column 2 to the column 3, blown and patted for a homogeneous mixture; then 20 μL solution was pipetted from the column 3 to the column 4, blown and patted for a homogeneous mixture, sequently, the drug was diluted by 3 times, 10 concentrations in total. The columns 1 and 12 were supplemented with 40 μL of DMSO.
2. Intermediate plate preparation
A sterile V-bottom 96 deep well plate was used and in each well, 495 μL FBS-free PRMI 1640 medium was added, then 5 μL of the diluted compound (or DMSO) in the 1000× compound plate was pipetted into corresponding position of the V-bottom 96 well plate, blown and patted evenly.
3.1. The cell plate was taken out from the incubator and was observed under microscope. The diluted compound or DMSO in the intermediate plate was added into the cell plate, 11 μL each well.
3.2. The cell was continued to be cultured at 37° C., 5% CO2 for 72 hours.
The 5th Day: CellTiter-Glo Detection of the Cell Activity
1. The CellTiter-Glo buffer and the reaction substrate were taken out from the refrigerator, after balanced to r.t., the buffer was poured into a brown bottle containing the substrate, the bottle was upside down to have the substrate powder sufficientaly dissolved.
2. The cell was observed under microscope; the cell plate was balanced to r.t.
3. The prepared CellTiter-Glo was added into the 96 well plate, at 100 μL/well.
4. The cell plate was placed on a shaker for 10 min, followed by standing at r.t. for 10 min.
5. A white seal film was attached to the bottom of the well plate, and the chemiluminescence signal of each well was detected by the Enspire microplate detector.
6. XLfit was used for data processing. Inhibition rate %=(d-c)/(d-b)×100, while d is the signal value of the DMSO treated group, c is the signal value of the compound treated group, b is signal value of the blank control that only containing medium and DMSO without cells. The data was fitted using the f (x)205[fit=(A+((B−A)/(1+((C/x)^∧D))))] equation in the XLfit software.

[2] = tested on: MV-4-11 cells; assay: Inhibitory effect on MV-4-11 cells (CellTiter-Glo); assay type: cell-based; details: Homo sapiens, read-out: MV-4-11
[3] = biological target: T1, BRD4 (BD2) (Homo sapiens, UniProt O60885); assay: BRD4 (BD2) bromodomain binding, HTRF; details: 2 h incubation at r.t.
T1 construct: Each member comprises two tandem bromodomains (BD1 and BD2) for recognizing the acetylated lysine residues

[4] = biological target: T2, BRD4 (BD1) (Homo sapiens, UniProt O60885); assay: BRD4 (BD1) bromodomain binding, HTRF; details: 2 h incubation at r.t.
T2 construct: Each member comprises two tandem bromodomains (BD1 and BD2) for recognizing the acetylated lysine residues

[5] = Metabolic stability in mouse liver microsomes; assay type: in vitro ADME; details: mouse liver microsomes 0.5 mg/mL, NADPH, 37° C.; for CLint scaled at 1 µM: pH 7.4, read-out: MLM_CLint
Method: (§1) Determinations of the metabolic stability of the compound from the above embodiments, the detailed operation steps are as followed:
(§2) 1. Preparation of buffer C:
(§3) Buffer A: 1.0 L of 0.1 M potassium dihydrogen phosphate buffer (containing 1.0 mM EDTA);
(§4) Buffer B: 1.0 L of 0.1 M dipotassium hydrogen phosphate buffer (containing 1.0 mM EDTA);
(§5) Buffer C: 500 mL Buffer B was titrated with Buffer A to pH 7.4.
(§6) 2. 10 mM stock solution preparation:
(§7) 10 mM test compound: A certain amount of the test compound was weighed and dissolved in DMSO.
(§8) 10 mM control: 5.455 mg of ketanserin dissolved in 1 mL DMSO.
(§9) 3. Preparation of the drug solution:
(§10) 500 μM solution: 5 μL of 10 mM stock solution (see step 2) was added into 95 μL ACN;
(§11) 1.5 μM dosing solution (dissolved in liver microsome solution):
(§12) 18.75 μL of 20 mg/mL liver microsomes was added into 479.75 μL of Buffer C, then 1.5 μL of 500 μM solution was added and mixed gently by shaking.
(§13) 4. Preparation of 6 mM NADPH solution:
(§14) 15 mg NADPH was weighted, then added into 3 mL of buffer C to prepare a 6 mM NADPH solution.
(§15) 5. 30 µL of 1.5 μM dosing solution (see step 3) was added into the wells of the 96-well plate set at different time points (0 minutes, 5 minutes, 15 minutes, 30 minutes, 45 minutes), number of dulplicate sample is 2.
(§16) 6. Preparation of a 0 minutes sample: 135 μL ACN (with internal standard) was added to the 0 minutes well, followed by 15 µL of 6 mM NADPH solution.
(§17) 7. The 96-well plate containing 1.5 μM dosing solution and NADPH solution were preheated in a 37° C. water bath for 5 minutes.
(§18) 8. The 15 µL of 6 mM NADPH solution preheated was added into the wells set to 5 minutes, 15 minutes, 30 minutes, 45 minutes, then the reaction was initiated and started counting the time.
(§19) 10. The sample was vortexed for 10 min, and then centrifuged for 15 minutes on a centrifuge (Thermo Multifuge×3R) using 5594×g.
(§20) 11. 50 μL of the supernatant was taken from the centrifuged sample, transferred to a 96-well sample plate to which 100 μL of ultrapure water had already been added, mixed, and finally sent to LC-MS/MS for analysis.
(§21) Half time (T1/2)=0.693/K (K is the rate constant obtained by linear regression of the logarithm of the concentration as vertical coordinates and the culturing time as the abscissa)
(§22) 2. According to the equation formula bellow, Excel was used to plot the compound content versus reaction time, as well as half life calculation (min)
(§23) Y=(Y0−Plateau)×e^(−K*X)+Plateau
(§24) Y0 represents the compound content at 0 minutes; Y represents the compound content; X represents the time point; K represents degration rate constant of the compound; Plateau represents the lowest possible content of the compound (defined herein as 0).

[6] = Metabolic stability in human liver microsomes; assay type: in vitro ADME; details: human liver microsomes 0.5 mg/mL, NADPH, 37° C.; for CLint scaled at 1 µM: pH 7.4, read-out: HLM_CLint
Method: as §1, §2, §3, §4, §5, §6, §7, §8, §9, §10, §11, §12, §13, §14, §15, §16, §17, §18, §19, §20, §21, §22, §23, §24

[7] = Body weight of MV-4-11 tumor-bearing mice during treatment; assay type: in vivo; details: intragastric QD*14, ABBV-075 3, GSK762 15, 4009 10 mg/kg
Method: The preparation and any revision of this experimental protocol are carried out in accordance with the evaluation criteria of the “Institute for Animal Care and Use (IACUC)” of Shanghai Chempartner Chemical Research Co., Ltd. The use and welfare of laboratory animals are carried out in accordance with the provisions of the Association for Assessment and Accreditation of Laboratory Animal Care (AAALAC). Animals are monitored daily for health and death. Routine examinations include observations of the effects of the test substance and the drug on the daily behavior of the animal such as behavioral activities, intake of water and feeds, weight change (three weights measured weekly), appearance signs or other anormal circumstance. The number of animal deaths and side effects in the group were recorded based on the number of animals in each group.

[8] = tested on: MV-4-11 subcutaneous xenograft tumor; assay: Anti-tumor efficacy in vivo, MV-4-11 subcutaneous xenograft model; design: species or system BALB/c nude mice; details: intragastric QD*14
Method: According to the growth of the cells, the treatment was passaged twice a week. When the cells are in the exponential growth phase, the cells are collected, counted, and inoculated.
Experimental protocol: 0.2 mL of cell suspension containing about 5×10^MV-4-11 cells (cell suspended in IMDM medium and added with 50% Matrigel) was inoculated subcutaneously into the right back of each mouse. Group administration was initiated when the average tumor volume reached approximately 136.94 mm^3 (day 15 post inoculation). Grouping method: Animals were weighed before dosing and tumor volume was measured. Grouping designed based on tumor volume.
The experimental indicator is to investigate whether tumor growth can be inhibited, delayed or cured. Tumor diameters were measured with vernier calipers three times a week. The formula for calculating tumor volume is: V=0.5×a×b^2, a and b represent the long and short diameters of the tumor, respectively. The antitumor effect of the compound was evaluated by T/C (%). T/C %=TRTV/CRTV×100% (TRTV: treatment group RTV; CRTV: negative comparative group RTV). The relative tumor volume RTV is calculated as RTV=Vt/V1. Where V1 is the measured tumor volume at the time of group administration (i.e., Day 1), and Vt is the tumor volume at each measurement.
The tumor volume and tumor size were analysed by statistical software. GraphPad Prism software was used for analyzation, p<0.05 is considered to have significant difference, p<0.01 is considered to have extremely significant difference.
Two-way Anova Bonferroni post-test is used to compare the tumor volume difference between the control group and the treatment group.

[9] = MV4-11, 72 hours, CellTiter-Glo

## Cc1sc2c(c1C)C(c1ccc(Cl)cc1)=N[C@@H](CC(=O)OC(C)(C)C)c1nnc(C)n1-2 [(+)-JQ1, reference compound]
[1]; SU-DHL-6, 72 h
  IC50: 198 nM
[2]; MV4-11, 72 h
  IC50: 248 nM

## Cn1cc2c(c1C(N)=O)CC(=O)N(c1ccc(F)cc1)c1ccc(CS(C)(=O)=O)cc1-2 [Compound 4001, 6-(4-fluorophenyl)-2-methyl-9-(methylsulfonemethyl)-5-oxo-2,4,5,6-tetrahydrobenzo[b]pyrrolo[3,4-d]azepin-3-carboxamide]
[1]; 72 hours, CellTiter-Glo
  IC50: 2000 nM
[3]
  IC50: 25 nM
[2]; [9]
  IC50: 1440 nM
[4]
  IC50: 124 nM

## Cn1cc2c(c1C(N)=O)CCN(c1ccc(F)cc1)c1ccc(CS(C)(=O)=O)cc1-2 [Compound 4002, 6-(4-fluorophenyl)-2-methyl-9-(methylsulfonylmethyl)-2,4,5,6-tetrahydrobenzo[b]pyrrolo[3,4-d]azepin-3-carboxamide]
[1]; 72 hours, CellTiter-Glo
  IC50: 1930 nM
[3]
  IC50: 47 nM
[5]
  MLM_T1/2: 23.42 min
  CLint scaled at 1 µM: 233 mL/min/kg
[2]; [9]
  IC50: 1120 nM
[6]
  HLM_T1/2: 38.19 min
  CLint scaled at 1 µM: 45.5 mL/min/kg
[4]
  IC50: 26 nM

## Cn1cc2c(c1C#N)CC(=O)N(c1ccc(F)cc1)c1ccc(CS(C)(=O)=O)cc1-2 [Compound 4003, 6-(4-Fluorophenyl)-2-methyl-9-(methylsulfonemethyl)-5-oxo-2,4,5,6-tetrahydrobenzo[b]pyrrolo[3,4-d]azepin-3-nitrile]
[1]; 72 hours, CellTiter-Glo
  IC50: 2040 nM
[3]
  IC50: 16 nM
[2]; [9]
  IC50: 1550 nM
[4]
  IC50: 148 nM

## Cn1cc2c(c1C(N)=O)CCN(c1ccc(F)cc1)c1ncc(F)cc1-2 [Compound 4005, 9-fluoro-6-(4-fluorophenyl)-2-methyl-2,4,5,6-tetrahydropyrido[2,3-b]pyrrolo[3,4-d]azepin-3-carboxamide]
[1]; 72 hours, CellTiter-Glo
  IC50: > 10000 nM
[3]
  IC50: 550 nM
[2]; [9]
  IC50: > 10000 nM
[4]
  IC50: 163 nM

## Cn1cc2c(cc1=O)CN=C(c1ccc(F)cc1)c1ccc(CS(C)(=O)=O)cc1-2 [Compound 4007, 7-(4-Fluorophenyl)-2-methyl-10-(methylsulfonemethyl)-2H-benzo[c]pyrido[3,4-e]azepin-3(5H)-ketone]
[1]; 72 hours, CellTiter-Glo
  IC50: 253 nM
[3]
  IC50: 7 nM
[5]
  MLM_T1/2: 815.54 min
  CLint scaled at 1 µM: 6.69 mL/min/kg
[2]; [9]
  IC50: 118 nM
[6]
  HLM_T1/2: ∞
[4]
  IC50: 6 nM

## CCS(=O)(=O)Cc1ccc2c(c1)-c1cn(C)c(=O)cc1CN=C2c1ccc(Cl)cc1 [Compound 4011, 7-(4-chlorophenyl)-10-((ethylsulfone)methyl)-2-methyl-2,5-dihydro-3H-benzo[c]pyrido[3,4-e]Azazale-3-ketone]
[1]; 72 hours, CellTiter-Glo
  IC50: 59 nM
[3]
  IC50: 4 nM
[5]
  MLM_T1/2: 1056.88 min
  CLint scaled at 1 µM: 5.16 mL/min/kg
[2]; [9]
  IC50: 65 nM
[6]
  HLM_T1/2: 1127.52 min
  CLint scaled at 1 µM: 1.54 mL/min/kg
[4]
  IC50: 4 nM

## CCNC(=O)C[C@@H]1N=C(c2ccc(Cl)cc2)c2cc(OC)ccc2-n2c(C)nnc21 [GSK762]
[7]; relative body weight change vs Day 1
  Average RCBW, Treatment end Day 15: 5.07%
[7]; x ± SEM
  Average body weight, Treatment end Day 15: 21.86 ± 0.38 g
  Average body weight, Treatment start Day 1: 20.82 ± 0.40 g
[8]; ABBV-075 3 mg/kg, GSK762 15 mg/kg, 4009 10 mg/kg
  anti-tumor effect on the MV-4-11 cell xenograft tumor mouse model: no significant anti-tumor effect
[8]; ABBV-075 3, GSK762 15, 4009 10 mg/kg
  Average tumor weight, 15th day of treatement: 0.522 ± 0.11 g
